# Results from US8383618B2, “C2-fluoro substituted piperazine linked pyrrolo[2,1-C][1,4] benzodiazepine dimers and a process for the preparation thereof” (Council of Scientific & Industrial Research, priority 2008, dated 2013).
# How the values were obtained:
# [1] = system: sixty human tumor cells derived from nine cancer types; experiment: NCI in vitro anticancer screen (SRB), whole panel; format: cell-based; details: human tumor cell lines; 48 h drug exposure, SRB
# Description: (§1) The above compounds were evaluated for in vitro anticancer activity against sixty human tumor cells derived from nine cancer types (leukemia, non small cell cancer, colon cancer CNS cancer, melanoma, ovarian cancer renal cancer, prostate cancer and breast cancer) as per NCI protocol. For each compound, dose response curves for each cell line were measured at a minimum of five concentrations at 10-fold dilution. A protocol of 48 h continuous drug exposure was used, and a sulforhodamine B (SRB) protein assay was used to estimate cell viability or growth. The concentration causing 50% cell growth inhibition (GI50), total cell growth inhibition (TGI, 0% growth) and 50% cell death (LC-50% growth) compared with the control was calculated.
# CCRF-CEM = experiment: NCI in vitro anticancer screen (SRB); format: cell-based, human; details: Leukemia, 48 h exposure
# Description: as §1
# RXF 393 = experiment: NCI in vitro anticancer screen (SRB); format: cell-based, human; details: Renal, 48 h exposure
# Description: as §1
# SNB-75 = experiment: NCI in vitro anticancer screen (SRB); format: cell-based, human; details: CNS, 48 h exposure
# Description: as §1
# A498 = experiment: NCI in vitro anticancer screen (SRB); format: cell-based, human; details: Renal, 48 h exposure
# Description: as §1
# SK-OV-3 = experiment: NCI in vitro anticancer screen (SRB); format: cell-based, human; details: Ovarian, 48 h exposure
# Description: as §1
# BT-549 = experiment: NCI in vitro anticancer screen (SRB); format: cell-based, human; details: Breast, 48 h exposure
# Description: as §1
# K-562 = experiment: NCI in vitro anticancer screen (SRB); format: cell-based, human; details: Leukemia, 48 h exposure
# Description: as §1
# SW-620 = experiment: NCI in vitro anticancer screen (SRB); format: cell-based, human; details: Colon, 48 h exposure
# Description: as §1
# CAKI-1 = experiment: NCI in vitro anticancer screen (SRB); format: cell-based, human; details: Renal, 48 h exposure
# Description: as §1
# SK-MEL-5 = experiment: NCI in vitro anticancer screen (SRB); format: cell-based, human; details: Melanoma, 48 h exposure
# Description: as §1
# NCI-H322M = experiment: NCI in vitro anticancer screen (SRB); format: cell-based, human; details: Non-small cell lung, 48 h exposure
# Description: as §1
# HS 578T = experiment: NCI in vitro anticancer screen (SRB); format: cell-based, human; details: Breast, 48 h exposure
# Description: as §1
# 786-0 = experiment: NCI in vitro anticancer screen (SRB); format: cell-based, human; details: Renal, 48 h exposure
# Description: as §1
# SR = experiment: NCI in vitro anticancer screen (SRB); format: cell-based, human; details: Leukemia, 48 h exposure
# Description: as §1
# PC-3 = experiment: NCI in vitro anticancer screen (SRB); format: cell-based, human; details: Prostate, 48 h exposure
# Description: as §1
# M14 = experiment: NCI in vitro anticancer screen (SRB); format: cell-based, human; details: Melanoma, 48 h exposure
# Description: as §1
# SF-539 = experiment: NCI in vitro anticancer screen (SRB); format: cell-based, human; details: CNS, 48 h exposure
# Description: as §1
# HOP-62 = experiment: NCI in vitro anticancer screen (SRB); format: cell-based, human; details: Non-small cell lung, 48 h exposure
# Description: as §1
# MOLT-4 = experiment: NCI in vitro anticancer screen (SRB); format: cell-based, human; details: Leukemia, 48 h exposure
# Description: as §1
# TK-10 = experiment: NCI in vitro anticancer screen (SRB); format: cell-based, human; details: Renal, 48 h exposure
# Description: as §1
# HOP-92 = experiment: NCI in vitro anticancer screen (SRB); format: cell-based, human; details: Non-small cell lung, 48 h exposure
# Description: as §1
# SF-268 = experiment: NCI in vitro anticancer screen (SRB); format: cell-based, human; details: CNS, 48 h exposure
# Description: as §1
# MALME-3M = experiment: NCI in vitro anticancer screen (SRB); format: cell-based, human; details: Melanoma, 48 h exposure
# Description: as §1
# OVCAR-5 = experiment: NCI in vitro anticancer screen (SRB); format: cell-based, human; details: Ovarian, 48 h exposure
# Description: as §1
# HL-60(TB) = experiment: NCI in vitro anticancer screen (SRB); format: cell-based, human; details: Leukemia, 48 h exposure
# Description: as §1
# DU-145 = experiment: NCI in vitro anticancer screen (SRB); format: cell-based, human; details: Prostate, 48 h exposure
# Description: as §1
# T-47D = experiment: NCI in vitro anticancer screen (SRB); format: cell-based, human; details: Breast, 48 h exposure
# Description: as §1
# SK-MEL-28 = experiment: NCI in vitro anticancer screen (SRB); format: cell-based, human; details: Melanoma, 48 h exposure
# Description: as §1
# MCF7 = experiment: NCI in vitro anticancer screen (SRB); format: cell-based, human; details: Breast, 48 h exposure
# Description: as §1
# RPMI-8226 = experiment: NCI in vitro anticancer screen (SRB); format: cell-based, human; details: Leukemia, 48 h exposure
# Description: as §1
# IGROV1 = experiment: NCI in vitro anticancer screen (SRB); format: cell-based, human; details: Ovarian, 48 h exposure
# Description: as §1
# UACC-62 = experiment: NCI in vitro anticancer screen (SRB); format: cell-based, human; details: Melanoma, 48 h exposure
# Description: as §1
# HCT-116 = experiment: NCI in vitro anticancer screen (SRB); format: cell-based, human; details: Colon, 48 h exposure
# Description: as §1
# OVCAR-3 = experiment: NCI in vitro anticancer screen (SRB); format: cell-based, human; details: Ovarian, 48 h exposure
# Description: as §1
# LOX IMVI = experiment: NCI in vitro anticancer screen (SRB); format: cell-based, human; details: Melanoma, 48 h exposure
# Description: as §1
# NCI-H460 = experiment: NCI in vitro anticancer screen (SRB); format: cell-based, human; details: Non-small cell lung, 48 h exposure
# Description: as §1
# SNB-19 = experiment: NCI in vitro anticancer screen (SRB); format: cell-based, human; details: CNS, 48 h exposure
# Description: as §1
# U251 = experiment: NCI in vitro anticancer screen (SRB); format: cell-based, human; details: CNS, 48 h exposure
# Description: as §1
# OVCAR-8 = experiment: NCI in vitro anticancer screen (SRB); format: cell-based, human; details: Ovarian, 48 h exposure
# Description: as §1
# HCC-2998 = experiment: NCI in vitro anticancer screen (SRB); format: cell-based, human; details: Colon, 48 h exposure
# Description: as §1
# COLO 205 = experiment: NCI in vitro anticancer screen (SRB); format: cell-based, human; details: Colon, 48 h exposure
# Description: as §1
# HT29 = experiment: NCI in vitro anticancer screen (SRB); format: cell-based, human; details: Colon, 48 h exposure
# Description: as §1
# KM12 = experiment: NCI in vitro anticancer screen (SRB); format: cell-based, human; details: Colon, 48 h exposure
# Description: as §1
# A549/ATCC = experiment: NCI in vitro anticancer screen (SRB); format: cell-based, human; details: Non-small cell lung, 48 h exposure
# Description: as §1
# MDA-MB-435 = experiment: NCI in vitro anticancer screen (SRB); format: cell-based, human; details: Breast, 48 h exposure
# Description: as §1
# ACHN = experiment: NCI in vitro anticancer screen (SRB); format: cell-based, human; details: Renal, 48 h exposure
# Description: as §1
# SN12C = experiment: NCI in vitro anticancer screen (SRB); format: cell-based, human; details: Renal, 48 h exposure
# Description: as §1
# NCI-H522 = experiment: NCI in vitro anticancer screen (SRB); format: cell-based, human; details: Non-small cell lung, 48 h exposure
# Description: as §1
# calf thymus (CT) DNA = experiment: Thermal denaturation studies; format: binding; details: [PBD]:[DNA] molar ratio 1:5; CT-DNA 100 μM, ligand 20 μM; sodium phosphate buffer pH 7.00
# Description: The DNA binding affinity of the C2-Fluoro substituted piperazine linked pyrrolo[2,1c][1,4]benzodiazepine dimers were subjected to thermal denaturation studies using calf thymus (CT) DNA (Jones, G. B.; Davey, C. L.; Jenkins, T. C.; Kamal, A.; Kneale, G. G.; Neidle, S.; Webster, G. D.; Thurston, D. E. Anti-cancer Drug Des. 1990, 5, 249. McConnaughie, A. W.; Jenkins, T. C. J. Med. Chem. 1995, 38, 3488). The studies for these compounds (IXa-f) were carried out by DNA/ligand molar ratio is 1:5 the increase in the helix melting temperature (ΔTm) for each compound was examined at 0 h. […] Data for DSB-120 and SJG-136 are included in Table-3 for comparison. The synthetic DC-81 dimer (DSB-120) gives a ΔTm 10.2° C. and SJC-136 gives a […]Tm of 25° C. under identical experimental condition.
smiles,measurement,setting,value
"COc1cc2c(cc1OCCCN1CCN(CCCOc3cc4c(cc3OC)C(=O)N3CC(F)(F)C[C@H]3C=N4)CC1)N=C[C@@H]1CC(F)(F)CN1C2=O [IXd, 1,1′-{[(bispropane-1,N-diyl)piperazine]dioxy}bis[(11aS)-2-2-difluoro-7-methoxy-1,2,3,11a-tetrahydro-5H-pyrrolo[2,1-c][1,4]benzodiazepine-5-one]]",Log10 GI50 mean graph midpoint (MG_MID),[1],−5.41
same,Log10 LC50 mean graph midpoint (MG_MID),[1],−4.2
same,Log10 TGI mean graph midpoint (MG_MID),[1],−4.79
same,GI50,CCRF-CEM,0.9 µM
same,GI50,RXF 393,2.14 µM
same,GI50,SNB-75,5.52 µM
same,GI50,A498,2.43 µM
same,GI50,SK-OV-3,8.64 µM
same,GI50,BT-549,3.25 µM
same,GI50,K-562,1.7 µM
same,GI50,SW-620,2.61 µM
same,GI50,CAKI-1,3.31 µM
same,GI50,SK-MEL-5,1.86 µM
same,GI50,NCI-H322M,1.96 µM
same,GI50,HS 578T,2.94 µM
same,GI50,786-0,3.17 µM
same,GI50,SR,0.8 µM
same,GI50,PC-3,3.06 µM
same,GI50,M14,3.25 µM
same,GI50,SF-539,3 µM
same,GI50,HOP-62,3.17 µM
same,GI50,MOLT-4,2.02 µM
same,GI50,TK-10,4.38 µM
same,GI50,HOP-92,6.14 µM
same,GI50,SF-268,3.57 µM
same,GI50,MALME-3M,2.8 µM
same,GI50,OVCAR-5,3.83 µM
same,GI50,HL-60(TB),1.18 µM
same,GI50,DU-145,3.63 µM
same,GI50,T-47D,1.38 µM
same,GI50,SK-MEL-28,4.28 µM
same,GI50,MCF7,2.09 µM
same,GI50,RPMI-8226,2.2 µM
same,GI50,IGROV1,1.92 µM
same,GI50,UACC-62,3.05 µM
same,GI50,HCT-116,3.59 µM
same,GI50,OVCAR-3,3.55 µM
same,GI50,LOX IMVI,1.89 µM
same,GI50,NCI-H460,2.6 µM
same,GI50,SNB-19,4.08 µM
same,GI50,U251,3.36 µM
same,GI50,OVCAR-8,6.3 µM
same,GI50,HCC-2998,5.4 µM
same,GI50,COLO 205,3.09 µM
same,GI50,HT29,3.61 µM
same,GI50,KM12,4.1 µM
same,GI50,A549/ATCC,7.3 µM
same,GI50,MDA-MB-435,1.95 µM
same,GI50,ACHN,5.64 µM
same,GI50,SN12C,4.05 µM
same,GI50,NCI-H522,1.14 µM
same,ΔTm after incubation at 37° C. for 0 h,calf thymus (CT) DNA,11.0 °C
